Values after ≈ are worked out from the molar mass of the structure shown. Where two headings read alike, the source gives them in different places.
How the values were obtained:
HL60/VINC = assay: reversal of drug resistance to Adriamycin, in vitro cytotoxicity assay (3H-leucine incorporation); format: cell-based, human; details: change in IC50 of Adriamycin; test compound at maximum noncytotoxic concentration (Conc. µM column: 12, 4)
Description: (§1) The cells used to analyze the reversal of drug resistance are the human leukemia cell lines HL60/s, HL60/Vinc, and HL60/ADR. HL60/s cells are not selected for drug resistance and are therefore sensitive to drug treatment (McGrath, et al., "Mechanisms of Multidrug Resistance in HL60 Cells. Analysis of Resistance Associated Membrane Proteins and Levels of MDR Gene Expression, Biochemical Pharmacology, 38: 3611-3619, 1989.). HL60/Vinc tumor cells are selected for resistance to vincristine and express a high level of the multidrug resistance-related protein, P-glycoProtein. Id. HL60/ADR cells are selected for resistance to Adriamycin but contain no detectable levels of P-glycoProtein. Id.
(§2) The in vitro cytotoxicity assays are performed by suspending the target cells into Minimum Essential Eagle's Medium (MEM) containing 25% of the normal leucine concentration and 10% dialyzed fetal calf serum. 2x10^4 cells are seeded into each well of 96 well microtiter plates and are incubated overnight in 5% CO2 at 37°C. The agents to be tested for reversal activity are serially diluted (100 µM, 50 µM, ..., 0.2 µM) in media and added to the cells. 48 hours after adding the reversal agents to the target cells, 4 µCi of ^3H-leucine are added to each well and are incubated for an additional 16 hours at 37°C. The cells are harvested and the amount of ^3H-leucine incorporation is determined. The concentration of reversal agent required for 50% inhibition of ^3H-leucine incorporation (IC50) is calculated. Subsequent studies using reversal agents in the presence of cytotoxic drug (i.e., Adriamycin) utilize maximal concentrations of reversal agents that are not cytotoxic by themselves. The reversal of drug resistance by the various test compounds is accomplished by adding the maximum noncytotoxic concentration of the test compounds to log dilutions of Adriamycin (10, 1, 0.1, ... 0.001 µg/ml) and calculating the change in IC50 observed for Adriamycin against the HL60/s, HL60/Vinc, and HL60/ADR cell lines in the above described in vitro cytotoxicity assay.

HL60/ADR = assay: as above; format: cell-based, human; details: change in IC50 of Adriamycin; test compound at maximum noncytotoxic concentration (Conc. µM: 12, 6, 3, 4)
Description: as §1, §2

HL60/Adr cells = assay: cytotoxicity of oncolytic agents against HL60/Adr cells; format: cell-based; details: Homo sapiens
Procedure: as §2

HL60/S cells = assay: cytotoxicity of oncolytic agents against HL60/S cells; format: cell-based; details: Homo sapiens, HL-60; HL60/S cells (drug sensitive, no P-glycoProtein)
Procedure: as §2

For CC/C(=C(\c1ccccc1)c1ccc(OCCN(C)C)cc1)c1ccccc1 [Tamoxifen], the “Reversal Factor HL60/VINC” value (HL60/VINC) was 4.6 and the “Reversal Factor HL60/ADR” value (HL60/ADR) was 1.4.

COc1cccc2c1C(=O)c1c(O)c3c(c(O)c1C2=O)C[C@@](O)(C(=O)CO)C[C@@H]3O[C@H]1C[C@H](N)[C@H](O)[C@H](C)O1 [Adriamycin, Doxorubicin] gave an IC50 (HL60/Adr cells; HL60/ADR) of 2.2 µg/mL (≈ 4.05 µM) and an IC50 (HL60/S cells) of 0.011 µg/mL (≈ 0.0202 µM).

Compound COc1cc([C@@H]2c3cc4c(cc3[C@@H](O[C@@H]3O[C@@H]5CO[C@@H](C)O[C@H]5[C@H](O)[C@H]3O)[C@H]3COC(=O)[C@H]23)OCO4)cc(OC)c1O [Etoposide] has an IC50 (HL60/Adr cells; HL60/Adr cells (resistant to doxorubicin, express P190), read-out: IC50) of over 10 µg/mL and an IC50 (HL60/S cells) of 0.39 µg/mL (≈ 0.663 µM).

With C[C@]12CC[C@@H]3c4ccc(O)cc4CC[C@H]3[C@@H]1CC[C@@H]2O [17∝ Estradiol] the “Reversal Factor HL60/ADR” value (HL60/ADR) was 1.

For Cl.O=C(c1ccc(OCCN2CCCCC2)cc1)c1c(-c2ccc(O)cc2)sc2cc(O)ccc12 [Raloxifene HCL, raloxifene], the “Reversal Factor HL60/ADR” value (HL60/ADR) was 7.1.

Reference: patent EP0652004B1, “Methods for treating resistant neoplasms” (ELI LILLY AND COMPANY, priority 1993, dated 1995)
